Test results taken from patent publication US11578043B2, “Salt of delmopinol” (Lundbeck Pharmaceuticals Italy S.p.A., priority 2017, dated 2023).
Structures can show the parent of a compound that is named as a salt.

Tests used:
[1] = Dynamic Vapour Sorption (DVS) experiments; format: physicochemical; conditions: DVS at 25° C.; for water / moisture absorbed (change in mass) when humidity is increased to 95%: relative humidity from 30% RH up to 95% RH in steps of 10% RH; for hygroscopicity (in words): up to 95% RH, non-hygroscopic = less than 1.5% moisture absorbed at 95% RH
Description: The DVS experiments depicted in FIGS. 3 and 4 were performed at 25° C. […] In the present context, a “non-hygroscopic” salt of delmopinol indicates a salt wherein less than 1.5% moisture is absorbed when the salt is exposed to 95% RH at 25° C. for example when determined by Dynamic Vapor Sorption (DVS) according to the method of Example 4. Dynamic Vapour Sorption (DVS) experiments were performed for delmopinol HCl and delmopinol citrate using a SMS DVS Advantage 01 changing the relative humidity from 30% RH up to 95% RH in steps of 10% RH.

[2] = XRPD of the salt before and after DVS (solid state change on exposure to humidity); format: physicochemical; conditions: after DVS experiments at 95% RH
Description: The XRPD diffractograms in FIGS. 5 and 6 were obtained using CuKα1 radiation (λ=1.5406 Å). […] The hygroscopicity of delmopinol HCl is reflected in FIG. 4 depicting the DVS diagram obtained at 25° C. by the method described in Example 4. […] These diffractograms were obtained on another instrument.

| SMILES | water / moisture absorbed (change in mass) when humidity is increased to 95% [1] | hygroscopicity (in words) [1] | humidity at which the salt starts absorbing water [1] | change of solid state caused by exposure to humidity (XRPD after DVS vs non-exposed material) [2] |
| --- | --- | --- | --- | --- |
| CCCC(CCC)CCCC1COCCN1CCO.O=C(O)CC(O)(CC(=O)O)C(=O)O (stereo not drawn) [delmopinol citrate, 2-(3-(4-propylheptyl)morpholino)ethan-1-ol] | less than 1.5% | non-hygroscopic | – | – |
| CCCC(CCC)CCCC1COCCN1CCO (stereo not drawn) [delmopinol HCl, 2-(3-(4-propylheptyl)morpholino)ethan-1-ol] | about 45% | very hygroscopic | below 50 % humidity | irreversible |
